# Assays:
# [1] = system: TSST-1 production by Staphylococcus aureus MN8; type: cell-based; settings: 24 hours at 35° C.
# [2] = system: S. aureus MN8; type: cell-based, Staphylococcus aureus; settings: 24 hours at 35° C.
Substance,TSST-1 [1] [ng/mL],Final [S. aureus] [2]
Laureth-4,531.8,4.57 × 10^9 CFU/ml
Steareth-2,680.7,5.76 × 10^9 CFU/ml
PPG-5 Laureth-5,609.2,3.82 × 10^9 CFU/ml
